# Experimental data reported in PMC4987650, “Structural Investigation of Park’s Nucleotide on Bacterial Translocase MraY: Discovery of Unexpected MraY Inhibitors” (Scientific Reports, 2016).
# Assays:
# Type in all cases: biochemical
# MraYBS [1] = molecular target: T1, MraYBS (Bacillus subtilis, UniProt Q03521); experiment: HPLC-based MraY functional assay (substrate activity)
# T1 construct: MBP; made in house
# T1 sequence (Q03521 1-324): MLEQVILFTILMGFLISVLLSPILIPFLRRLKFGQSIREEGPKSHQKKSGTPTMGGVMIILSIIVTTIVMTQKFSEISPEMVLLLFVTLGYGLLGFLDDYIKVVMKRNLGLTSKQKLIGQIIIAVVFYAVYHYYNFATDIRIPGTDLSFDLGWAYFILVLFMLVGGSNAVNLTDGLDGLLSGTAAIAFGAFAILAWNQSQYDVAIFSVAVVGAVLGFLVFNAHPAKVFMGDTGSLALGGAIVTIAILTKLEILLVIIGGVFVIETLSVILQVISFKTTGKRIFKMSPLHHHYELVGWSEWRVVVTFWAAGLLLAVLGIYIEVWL
# Experimental: The purified MraY from Bacillus subtilis was prepared as described in our previous reports. […] […] The reaction mixtures were added by uridine (0.01 mg/mL) as the internal standard and heated to 100 °C to stop the transferring reaction. The samples were analyzed by RP-C18 HPLC with gradient elution of 0.25 M NH4HCO3(aq)/15% MeOH in water (100:0 to 0:100) at a flow rate of 1 mL/min over 45 min, and the peaks of substrates were monitored at UV 260 nm. For 6 and 11–17, the reaction mixture containing MraYBS (10 μg/mL), C55P (200 μM), 6-(7-Nitro-2,1,3-benzoxadiazol-4-ylamino)hexanoic acid (5 μM, internal standard) in 10 μL reaction buffer (30 mM Tris, 10 mM MgCl2, 10 mM NaCl, 0.1 mM Tween-20, 2.5% DMSO, pH 8.0) were pre-incubated at 37 °C for 15 min. […] The reaction mixtures were heated to 100 °C to stop the transferring reaction, and samples were analyzed by an anion-exchange column (SAX1, Supelco Co., 5 μm, 4.6 × 250 mm) with a linear gradient elution of NH4OAc (20 mM to 1 M in MeOH) at a flow rate of 1.0 mL/min over 30 min. The fluorescent substrates were monitored with λex 466 nm/λem 535 nm by fluorescence detector.
# MraYBS [2] = molecular target: T1, MraYBS; experiment: MraY fluorescence enhancement assay (kinetics, inhibition); conditions: WT MraYBS, 6 as the substrate
# Experimental: (§1) Determine kinetic parameters by MraY fluorescence enhancement assay. The fluorescence enhancement assay was performed in 384-well plate as described by Bugg et al. with slight modifications.5 The reaction mixture containing MraYBS (10 μg/mL), C55P (200 μM) in 30 μL reaction buffer (30 mM Tris, 10 mM MgCl2, 10 mM NaCl, 0.1 mM Tween-20, 2.5% DMSO, pH 8.0) were pre-incubated at 37 °C for 15 min. The reactions were initiated by the addition of various concentrations of NBD-Park’s nucleotide 6 (0 to 160 μM). For inhibition study, a various concentrations of inhibitors were added before the addition of substrate 6. The continuous fluorescence increase over 60 min was monitored with λex 466 nm/λem 535 nm by fluorescence microplate reader (SpectraMax M5, Molecular Devices, LLC) at 37 °C. Linear regressions of increased fluorescent units (FLU) versus time (min) were used to calculate the initial velocities for each reaction. The kinetic parameters values (Ki, KM, and Vmax) were obtained by nonlinear regression analysis using the […] equation with the GraphPad Prism program (GraphPad Software, San
# MraYBS K226A mutant = molecular target: T2, MraYBS K226A mutant (Bacillus subtilis, UniProt Q03521, K226A); experiment: Fluorescent enhancement assay, mutant MraY; conditions: 6 as the substrate
# T2 construct: MBP; made in house
# Experimental: (§2) Site–directed mutagenesis of MraY. Site-directed mutagenesis of the B. subtilis MBP-tagged MraY enzyme was performed directly on the pMAL -BS-MraY-16 expression plasmid by using the “Quickchanged XL Site-Directed Mutagenesis Kit ’’ from stratagene and the oligonucleotides shown below. Mutations introduced in the mraY gene sequence were checked by DNA sequencing. […]
# (§3) MraY-T51A-R 5’-[…]-3’
# (§4) T53A MraY-T53A-F 5’-[…]-3’
# (§5) MraY-T53A-R 5’-[…]-3’
# (§6) K102A MraY-K102A-F 5’-[…]-3’
# (§7) MraY-K102A-R 5’-[…]-3’
# (§8) K226A Mray-K226A-F 5’-[…]-3’ […]
# (§9) F228A MraY-F228A-F 5’-[…]-3’
# (§10) MraY-F228A-R 5’-[…]-3’
# (§11) Q271A Mray-Q271A-F 5’-[…]-3’
# (§12) Mray-Q271A-R 5’-[…]-3’
# (§13) R281A MraY-R281A-F 5’-[…]-3’
# (§14) MraY-R281A-R 5’-[…]-3’
# (§15) W297A MraY-W297A-F 5’-[…]-3’
# (§16) MraY-W297A-R 5’-[…]-3’
# as §1
# (§17) (1 picture or pasted object on this page, not shown here)
# MraYBS R281A mutant = molecular target: T3, MraYBS R281A mutant (Bacillus subtilis, UniProt Q03521, R281A); experiment: Fluorescent enhancement assay, mutant MraY; conditions: 6 as the substrate
# T3 construct: MBP; made in house
# Experimental: as §2, §3, §4, §5, §6, §7, §8, §9, §10, §11, §12, §13, §14, §15, §16, §1, §17
# MraYBS K102A mutant = molecular target: T4, MraYBS K102A mutant (Bacillus subtilis, UniProt Q03521, K102A); experiment: Fluorescent enhancement assay, mutant MraY; conditions: 6 as the substrate
# T4 construct: MBP; made in house
# Experimental: as §2, §3, §4, §5, §6, §7, §8, §9, §10, §11, §12, §13, §14, §15, §16, §1, §17
# MraYBS F228A mutant = molecular target: T5, MraYBS F228A mutant (Bacillus subtilis, UniProt Q03521, F228A); experiment: Fluorescent enhancement assay, mutant MraY; conditions: 6 as the substrate
# T5 construct: MBP; made in house
# Experimental: as §2, §3, §4, §5, §6, §7, §8, §9, §10, §11, §12, §13, §14, §15, §16, §1, §17
# MraYBS T53A mutant = molecular target: T6, MraYBS T53A mutant (Bacillus subtilis, UniProt Q03521, T53A); experiment: Fluorescent enhancement assay, mutant MraY; conditions: 6 as the substrate
# T6 construct: MBP; made in house
# Experimental: as §2, §3, §4, §5, §6, §7, §8, §9, §10, §11, §12, §13, §14, §15, §16, §1, §17
# MraYBS T51A mutant = molecular target: T7, MraYBS T51A mutant (Bacillus subtilis, UniProt Q03521, T51A); experiment: Fluorescent enhancement assay, mutant MraY; conditions: 6 as the substrate
# T7 construct: MBP; made in house
# Experimental: as §2, §3, §4, §5, §6, §7, §8, §9, §10, §11, §12, §13, §14, §15, §16, §1, §17
# MraYBS W297A mutant = molecular target: T8, MraYBS W297A mutant (Bacillus subtilis, UniProt Q03521, W297A); experiment: Fluorescent enhancement assay, mutant MraY; conditions: 6 as the substrate
# T8 construct: MBP; made in house
# Experimental: as §2, §3, §4, §5, §6, §7, §8, §9, §10, §11, §12, §13, §14, §15, §16, §1, §17
# MraYBS Q271A mutant = molecular target: T9, MraYBS Q271A mutant (Bacillus subtilis, UniProt Q03521, Q271A); experiment: Fluorescent enhancement assay, mutant MraY; conditions: 6 as the substrate
# T9 construct: MBP; made in house
# Experimental: as §2, §3, §4, §5, §6, §7, §8, §9, §10, §11, §12, §13, §14, §15, §16, §1, §17
compound,measurement,setting,value
"CC(=O)N[C@H]1[C@@H](OP(=O)(O)OP(=O)(O)OC[C@H]2O[C@@H](n3ccc(=O)[nH]c3=O)[C@H](O)[C@@H]2O)O[C@H](CO)[C@@H](O)[C@@H]1O[C@H](C)C(=O)N[C@@H](C)C(=O)N[C@H](CCC(=O)N[C@@H](CCCCNC(=O)CCCCCNc1ccc([N+](=O)[O-])c2nonc12)C(=O)N[C@H](C)C(=O)N[C@H](C)C(=O)O)C(=O)O [Compound 6, NBD-Park’s nucleotide]",substrate consumption,"MraYBS [1]; C55P (200 μM) as polyprenyl phosphate substrate, substrate 10 μM, within 1 h (60 min)",completely consumed
same,Relative activity,"MraYBS [1]; WT MraYBS, consumption of 6 in one-hour reaction",100%
same,Vmax,MraYBS [2],18 ± 0.8 FLU/min
same,Vmax,MraYBS K226A mutant,23 ± 4.7 FLU/min
same,Vmax,MraYBS R281A mutant,10 ± 1.4 FLU/min
same,Vmax,MraYBS K102A mutant,5 ± 0.2 FLU/min
same,Vmax,MraYBS F228A mutant,10 ± 1.5 FLU/min
same,Vmax,MraYBS T53A mutant,7 ± 0.8 FLU/min
same,Vmax,MraYBS T51A mutant,5 ± 0.2 FLU/min
same,Vmax,MraYBS W297A mutant,4 ± 0.4 FLU/min
same,Vmax,MraYBS Q271A mutant,6 ± 1.7 FLU/min
